The subject of the experiment is BDF1 mice, P388 leukemia ip, median survival T/C. Put plainly: NCI In Vivo Anticancer Drug Screen. Data for tumor model P388 Leukemia (intraperitoneal) in B6D2F1 (BDF1) mice. To be noted: endpoint: median survival time, higher = longer survival. The gist of the method:
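T/C = treated-group survival ÷ vehicle-control survival; tumour transplanted into mice before dosing.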

[1] abbreviates: dose: 12.5 mg/kg/injection, schedule: Q01DX009 (ip), vehicle: saline with Tween-80.
Where [2] appears, read: dose: 25.0 mg/kg/injection, schedule: Q01DX009 (ip), vehicle: saline with Tween-80.
Where [3] appears, read: dose: 50.0 mg/kg/injection, schedule: Q01DX009 (ip), vehicle: saline with Tween-80.
[4] abbreviates: dose: 50.0 mg/kg/injection, schedule: Q04DX003 (ip), vehicle: saline with Tween-80.
Setting [5] is: dose: 100.0 mg/kg/injection, schedule: Q01DX009 (ip), vehicle: saline with Tween-80.
The mark [6] stands for this setting: dose: 100.0 mg/kg/injection, schedule: Q04DX003 (ip), vehicle: saline with Tween-80.
Setting [7] is: dose: 200.0 mg/kg/injection, schedule: Q04DX003 (ip), vehicle: saline with Tween-80.
[8] abbreviates: dose: 100.0 mg/kg/injection, schedule: Q04DX003 (ip), vehicle: Klucel (hydroxypropylcellulose) (HPC).
The mark [9] stands for this setting: dose: 200.0 mg/kg/injection, schedule: Q04DX003 (ip), vehicle: Klucel (hydroxypropylcellulose) (HPC).
The mark [10] stands for this setting: dose: 400.0 mg/kg/injection, schedule: Q01DX009 (ip), vehicle: saline with Tween-80.
Where [11] appears, read: dose: 600.0 mg/kg/injection, schedule: Q01DX009 (ip), vehicle: saline with Tween-80.
The mark [12] stands for this setting: dose: 400.0 mg/kg/injection, schedule: Q04DX003 (ip), vehicle: Klucel (hydroxypropylcellulose) (HPC).
Where [13] appears, read: dose: 50.0 mg/kg/injection, schedule: Q04DX003 (ip), vehicle: saline.
Setting [14] is: dose: 100.0 mg/kg/injection, schedule: Q04DX003 (ip), vehicle: saline.
Where [15] appears, read: dose: 200.0 mg/kg/injection, schedule: Q01DX009 (ip), vehicle: saline with Tween-80.
[16] abbreviates: dose: 400.0 mg/kg/injection, schedule: Q04DX003 (ip), vehicle: saline with Tween-80.

These results are taken from PubChem BioAssay AID328 (DTP/NCI, 2004).

“And” between values parts separate entries of the source, which are not always exact repeats. Equal values may be shown once. Toxic doses and inconclusive results are not listed.

As for `CC(C)(C)OC(=O)NOc1ccc([N+](=O)[O-])cc1[N+](=O)[O-]`, the T/C is 117 % of control (dose: 3.12 mg/kg/injection, schedule: Q01DX009 (ip), vehicle: saline with Tween-80); 90 % of control (dose: 6.25 mg/kg/injection, schedule: Q01DX009 (ip), vehicle: saline with Tween-80); 100 % of control (dose: 6.25 mg/kg/injection, schedule: Q04DX003 (ip), vehicle: saline with Tween-80); 106 % of control and 93 % of control under setting [1]; 104 % of control (dose: 12.5 mg/kg/injection, schedule: Q04DX003 (ip), vehicle: saline with Tween-80); 90 % of control and 96 % of control under setting [2]. Moreover, the T/C reads like this: (dose: 25.0 mg/kg/injection, schedule: Q04DX003 (ip), vehicle: saline with Tween-80) 97 % of control; under setting [3], 93 % of control; under setting [4], 97 % of control; under setting [5], 100 % of control.
Consider `CCCCOB=O`, for which the T/C under setting [6] is 109 % of control and the T/C under setting [7] was 100 % of control.
With `c1ccc(Nc2ccc(Nc3ccccc3)cc2)cc1`, the T/C is, setting by setting: (dose: 50.0 mg/kg/injection, schedule: Q04DX003 (ip), vehicle: Klucel (hydroxypropylcellulose) (HPC)) 118 % of control; (dose: 100.0 mg/kg/injection, schedule: Q01DX001 (ip), vehicle: Klucel (hydroxypropylcellulose) (HPC)) 90 % of control; under setting [8], 104 % of control; (dose: 200.0 mg/kg/injection, schedule: Q01DX001 (ip), vehicle: Klucel (hydroxypropylcellulose) (HPC)) 100 % of control; under setting [9], 104 % of control; (dose: 400.0 mg/kg/injection, schedule: Q01DX001 (ip), vehicle: Klucel (hydroxypropylcellulose) (HPC)) 90 % of control.
As for `CCOc1cc(/C=N\Nc2nnc(C)n2N)c(C)cc1N(CCCl)CCCl`, the T/C runs as follows: (dose: 5.5 mg/kg/injection, schedule: Q01DX009 (ip), vehicle: saline with Tween-80) 200 % of control; (dose: 8.3 mg/kg/injection, schedule: Q01DX009 (ip), vehicle: saline with Tween-80) 209 % of control; under setting [1], 272 % of control; (dose: 18.7 mg/kg/injection, schedule: Q01DX009 (ip), vehicle: saline with Tween-80) 195 % of control; (dose: 40.0 mg/kg/injection, schedule: Q04DX003 (ip), vehicle: saline) 204 % of control; (dose: 50.0 mg/kg/injection, schedule: Q04DX003 (ip), vehicle: saline sonified) 168 % of control. For the same compound, the T/C (dose: 100.0 mg/kg/injection, schedule: Q04DX003 (ip), vehicle: saline sonified) was 86 % of control.
As for `COC(=S)SCN(CSC(=S)OC)c1ccccc1Cl`, the T/C by setting is: under setting [5], 118 % of control; under setting [10], 159 % of control; under setting [11], 158 % of control.
For `C[C@]12CC[C@H]3C(=CCc4cc(O)ccc43)[C@@H]1C/C(=N\O)C2=O`, the T/C is 90 % of control (dose: 100.0 mg/kg/injection, schedule: Q01DX009 (ip), vehicle: saline); 104 % of control under setting [8]; 100 % of control (dose: 200.0 mg/kg/injection, schedule: Q01DX009 (ip), vehicle: saline); 95 % of control under setting [9]; 109 % of control (dose: 264.0 mg/kg/injection, schedule: Q01DX009 (ip), vehicle: saline with Tween-80); 104 % of control under setting [10]. Moreover, the T/C is 95 % of control (dose: 400.0 mg/kg/injection, schedule: Q01DX009 (ip), vehicle: saline); 90 % of control under setting [12]; 109 % of control under setting [11].
As for `FC(F)(F)/C([S-])=C(/[S-])C(F)(F)F.FC(F)(F)/C([S-])=C(/[S-])C(F)(F)F.FC(F)(F)/C([S-])=C(/[S-])C(F)(F)F.FC(F)(F)/C([S-])=C(/[S-])C(F)(F)F.[Co+3].[Co+3]`, the T/C by setting is: (dose: 12.5 mg/kg/injection, schedule: Q04DX003 (ip), vehicle: other) 110 % of control; (dose: 25.0 mg/kg/injection, schedule: Q04DX003 (ip), vehicle: other) 120 % of control.
Turning to `CC(=O)Oc1c(Cl)c(Cl)c(C#N)c(Cl)c1C#N`, the T/C by setting is: under setting [3], 111 % of control; under setting [5], 122 % of control.
With `CCCCNP(=O)(N1CC1C)N1CC1C` (centres undefined), the T/C runs as follows: (dose: 33.0 mg/kg/injection, schedule: Q04DX003 (ip), vehicle: saline) 122 % of control; under setting [13], 175 % of control and 181 % of control; under setting [14], 90 % of control.
For `CC(=O)O[C@]1(C(C)=O)CC[C@H]2[C@@H]3C[C@H](Cl)C4=CC(=O)CC[C@]4(C)[C@H]3CC[C@@]21C`, the T/C runs as follows: under setting [3], 113 % of control; under setting [5], 109 % of control; under setting [6], 108 % of control; under setting [15], 100 % of control; under setting [7], 100 % of control.
For `CC1(C)C2CC3C(=CCCC3C#N)C1C2` (centres undefined), the T/C was 100 % of control under setting [8], 100 % of control under setting [9] and 100 % of control under setting [12].
`Nc1ncc(-c2ccc(CNc3ccc(C(=O)NC(CC(=O)O)CC(=O)O)cc3)cc2)c(N)n1`: the T/C is 113 % of control (dose: 2.0 mg/kg/injection, schedule: Q04DX003 (ip), vehicle: saline); 104 % of control (dose: 5.0 mg/kg/injection, schedule: Q04DX003 (ip), vehicle: saline); 104 % of control (dose: 10.0 mg/kg/injection, schedule: Q04DX003 (ip), vehicle: saline); 109 % of control (dose: 20.0 mg/kg/injection, schedule: Q04DX003 (ip), vehicle: saline); 118 % of control (dose: 30.0 mg/kg/injection, schedule: Q04DX003 (ip), vehicle: saline); 157 % of control under setting [4]. Moreover, the T/C runs as follows: under setting [13], 177 % of control; under setting [6], 242 % of control; under setting [14], 213 % of control.
Consider `O=C(O)c1ccc(Oc2nc3ccccc3s2)cc1`, for which the T/C by setting is: under setting [2], 95 % of control; under setting [3], 95 % of control; under setting [5], 104 % of control.
On to `CC(C)CCCCCCCCCCCCC(=O)NCC(=O)NC1C(O)C(O)C(Nc2ncnc3nc[nH]c23)OC1C(O)CO` (centres undefined), for which the T/C is, setting by setting: (dose: 0.09 mg/kg/injection, schedule: Q01DX010 (ip), vehicle: carboxymethylcellulose (CMC)) 160 % of control; (dose: 0.13 mg/kg/injection, schedule: Q01DX010 (ip), vehicle: steriod suspending solution) 90 % of control; (dose: 0.18 mg/kg/injection, schedule: Q01DX010 (ip), vehicle: carboxymethylcellulose (CMC)) 180 % of control; (dose: 0.37 mg/kg/injection, schedule: Q01DX010 (ip), vehicle: carboxymethylcellulose (CMC)) 175 % of control; (dose: 0.37 mg/kg/injection, schedule: Q01DX010 (ip), vehicle: steriod suspending solution) 165 % of control.
As to `Cc1ccc(C2(C(=O)O)CC2)cc1`, the T/C is 100 % of control under setting [6], 104 % of control under setting [7] and 108 % of control under setting [16].
Regarding `O=C(Cn1ccc(=O)[nH]c1=O)c1cccs1`, the T/C under setting [5] was 90 % of control; the T/C under setting [6] was 100 % of control; the T/C under setting [15] was 86 % of control; the T/C under setting [7] was 95 % of control; the T/C under setting [10] is 100 % of control; the T/C under setting [16] was 95 % of control.
`Nn1c(-c2ccc([N+](=O)[O-])cc2)nc2ccccc2c1=O`: the T/C is, setting by setting: under setting [3], 90 % of control; under setting [5], 91 % of control; under setting [15], 91 % of control.
Turning to `Oc1ccccc1C=NC1CCCCC1.Oc1ccccc1C=NC1CCCCC1.[Co+2]`, the T/C (dose: 50.0 mg/kg/injection, schedule: Q01DX001 (ip), vehicle: saline sonified) was 90 % of control; the T/C (dose: 100.0 mg/kg/injection, schedule: Q01DX001 (ip), vehicle: saline sonified) is 109 % of control; the T/C (dose: 200.0 mg/kg/injection, schedule: Q01DX001 (ip), vehicle: saline sonified) is 109 % of control.
Take `Cc1cc(O)c2c(c1O)C(=O)C13C(=C2O)C(=O)C2C(O)C1C1C(O)C3C(=O)C3=C(O)c4c(O)cc(C)c(O)c4C(=O)C321` (centres undefined): the T/C by setting is: (dose: 2.6 mg/kg/injection, schedule: Q04DX003 (ip), vehicle: saline with Tween-80) 113 % of control; (dose: 4.0 mg/kg/injection, schedule: Q04DX003 (ip), vehicle: saline with Tween-80) 118 % of control.
Regarding `COc1ccc2nccc(C=O)c2c1`, the T/C was 116 % of control under setting [5], 114 % of control under setting [15] and 117 % of control under setting [10].
